Test results taken from US20080008652A1, “Methods and compositions for mediation of immune responses and adjuvant activity” (The Regents of the University of Michigan, priority 2006, published 2008).

Columns and labels:
[1] = test system: peritoneal macrophages and bone marrow-derived macrophages (BMDM); assay: Cytokine secretion (IL-1β, IL-18, TNFα, IL-6) by stimulated macrophages, ELISA; format: cell-based, mouse; conditions: for secretion of IL-1β with brief ATP treatment: ligand 16 h, then 2 mM ATP 30 min; for requirement of endosomal acidification for IL-1β secretion: FIG. 12
[2] = test system: BMDM; assay: Cooperation of low-dose LPS with microbial ligands for IL-1β secretion; format: cell-based, mouse; conditions: for synergy with LPS for the secretion of IL-1β: WT BMDM, 10 ng ml−1 LPS and 10 ng ml−1 ligand, 24 h
Protocol: Measurements of cytokines. BMDM and peritoneal macrophages were prepared as previously described. Cells were stimulated with various microbial and synthetic ligands for 24 h and the supernatants were analyzed for IL-1β, IL-18, TNFα and IL-6 secretion. The following ligand concentrations were used: FLS-1, Pam3CSKKK4, LPS, lipoteichoic acid, lipid A and MDP were used at 1 μg ml^−1. For analysis of cooperation of LPS with various ligands, 10 ng ml^−1 of LPS and 10 ng ml^−1 of various ligands were used. In some experiments, the macrophages were stimulated with ligands for 16 h and then with medium containing 2 mM ATP (Sigma) for 30 min, washed, and cultured for an additional 5 h. Mouse cytokines were measured in culture supernatants with enzyme-linked immunoabsorbent assay (ELISA) kits (R and D Systems, Minneapolis, Minn.).

[3] = test system: caspase-1; assay: Caspase-1 activation (pro-caspase-1 processing) in macrophages, Western blotting; format: cell-based, mouse; conditions: for proteolytic processing of pro-caspase-1 (mature 20 kDa subunit): WT macrophages, ligand 1-3 h, then ATP 30 min
[4] = test system: NF-κB, ERK and p38; assay: NF-κB and MAPK (ERK, p38) activation in macrophages, Western blotting; format: cell-based, mouse; conditions: R837 5 μg ml-1
[5] = test system: IL-1β, IL-6 and TNFα in serum; assay: Serum cytokines after co-injection of LPS and R837 into mice, ELISA; format: in vivo, mouse
Protocol: (200 μg) or LPS plus […] (200 μg each) and levels of IL-1β (a), IL-6 (b) or TNFα (c) in serum were determined by ELISA at the indicated times.

[6] = test system: HSA-specific immunoglobulin; assay: Adjuvant activity: HSA-specific serum immunoglobulin after immunization; format: in vivo, mouse
Protocol: Immunization of mice. […] Serum sample were obtained two weeks after the first immunization and one week after the boost, and antigen specific serum immunoglobulin was assessed by ELISA using antibodies against mouse immunoglobulin and isotype controls (Southern Biotechnology).

[7] = test system: mice; assay: LPS-induced endotoxic shock, survival; format: in vivo, mouse; conditions: WT compared with cryopyrin−/− mice; 200 μg or 400 μg LPS
Protocol: Indicated numbers of wild-type and cryopyrin−/− mice (8 to 12 weeks old) were challenged with 200 μg (a) or 400 μg (b) of LPS and the survival over time of each mouse genotype was plotted.

[8] = WT compared with cryopyrin−/− peritoneal macrophages or BMDM, 24 h stimulation, ELISA
[9] = WT compared with cryopyrin−/− macrophages
[10] = WT compared with cryopyrin−/− macrophages, R837 stimulation 24 h
[11] = WT mice, co-injection of LPS and R837 compared with each alone
[12] = cryopyrin−/− mice, LPS plus R837
[13] = cryopyrin−/− compared with WT mice, R837 100 μg and HSA 50 μg i.p., 2 weeks after immunization

## lipoteichoic acid
[1]; [8]
  secretion of IL-1β: induced comparable levels of IL-1β in wild-type (WT) and cryopyrin−/− macrophages
[2]
  synergy with LPS for the secretion of IL-1β: not

## CC(=O)N[C@H]1C(O)O[C@H](CO)[C@@H](O)[C@@H]1O[C@H](C)C(=O)N[C@@H](C)C(=O)N[C@H](CCC(=O)O)C(N)=O (mixture of isomers) [MDP, muramyl dipeptide]
[1]; [9]
  secretion of IL-1β with brief ATP treatment: did not induce secretion of IL-1β over background levels
[1]; [8]
  secretion of IL-1β: did not induce secretion of IL-1β over background levels
[3]
  proteolytic processing of pro-caspase-1 (mature 20 kDa subunit): did not induce proteolytic processing of pro-caspase-1

## Pam2CGDPKHPHSF
[1]; [8]
  secretion of IL-1β: induced comparable levels of IL-1β in wild-type (WT) and cryopyrin−/− macrophages

## flagellin
[2]
  synergy with LPS for the secretion of IL-1β: not

## CCN(CC)CCCC(C)Nc1ccnc2cc(Cl)ccc12 (stereo not shown) [chloroquine]
[1]; treatment of macrophages with chloroquine
  effect on production of IL-1β induced by bacterial RNA: did not affect

## Pam3CSK4
[1]; [8]
  secretion of IL-1β: induced comparable levels of IL-1β in wild-type (WT) and cryopyrin−/− macrophages

## CC(C)Cn1cnc2c(N)nc3ccccc3c21 [R837, Imiquimod]
[4]; TLR7- and MyD88-deficient macrophages
  activation of NF-κB and MAPKs: abolished in TLR7- and MyD88-deficient macrophages
[4]; WT compared with cryopyrin−/− BMDM
  NF-κB, ERK and p38 activation: induced comparable levels of NF-κB, ERK and p38 activation in WT and cryopyrin−/− macrophages
[1]
  requirement of endosomal acidification for IL-1β secretion: not required
[1]; [10]
  production of IL-6: need for cryopyrin: cryopyrin was dispensable
  production of TNFα: need for cryopyrin: cryopyrin was dispensable
[1]; [9]
  secretion of IL-1β with brief ATP treatment: Cryopyrin is required
[1]; [8]
  secretion of IL-1β: abrogated
  secretion of IL-18: abrogated
[2]; cryopyrin−/− macrophages
  enhancement of LPS-mediated IL-1β production: abrogated in cryopyrin−/− macrophages
[5]; WT mice, co-administration of R837 and LPS (200 μg each) compared with each alone
  levels of IL-1β in serum: higher levels of IL-1β in serum than injection of R837 or LPS alone
[5]; [11]
  serum levels of IL-6: enhanced
  serum levels of TNFα: enhanced
[5]; [12]
  serum levels of IL-6: Reduced levels
  serum levels of TNFα: Reduced levels
[5]; cryopyrin−/− mice, LPS plus R837 200 μg each
  enhancement of the LPS response (serum IL-1β) by R837: abolished in cryopyrin−/− mice
[6]; [13]
  production of antigen specific IgG1: exhibited a defect
  production of antigen specific IgG2a/c: exhibited a defect
  production of antigen specific IgG3: exhibited a defect
[3]; TLR7- or MyD88-deficient macrophages
  activation of caspase-1: proceeded normally
[3]
  proteolytic processing of pro-caspase-1 (mature 20 kDa subunit): induced in WT macrophages
[3]; cryopyrin−/− macrophages
  activation of caspase-1: abrogated in macrophages lacking cryopyrin
[3]; macrophages lacking ASC
  activation of caspase-1: abrogated

## lipopolysaccharide [LPS]
[1]
  requirement of endosomal acidification for IL-1β secretion: not required
[1]; [8]
  secretion of IL-1β: induced comparable levels of IL-1β in wild-type (WT) and cryopyrin−/− macrophages
[3]; cryopyrin−/− macrophages
  activation of caspase-1: unimpaired in cryopyrin−/− macrophages
[7]
  lethality of high doses of LPS: comparable lethality in WT and cryopyrin−/− mice

## lipid A
[1]; [8]
  secretion of IL-1β: induced comparable levels of IL-1β in wild-type (WT) and cryopyrin−/− macrophages
[2]
  synergy with LPS for the secretion of IL-1β: not
[3]; cryopyrin−/− macrophages
  activation of caspase-1: unimpaired in cryopyrin−/− macrophages

## 5′-TCCATGACGTTCCTGACGTT-3′ [CpG]
[2]
  synergy with LPS for the secretion of IL-1β: not
[6]; WT compared with cryopyrin−/− mice, CpG 100 μg and HSA 50 μg, boosted 3 weeks later
  enhancement of HSA-specific IgG responses: unaffected by cryopyrin deficiency
